In one series the test system is Fut2^−/− mice. The series is described as follows: 2′-FL supplementation in chronic-binge ethanol diet (NIAAA model), ethanol-induced liver disease. The class given is in vivo, mouse. On the procedure: In the 2′-fucosyllactose (2′-FL; a gift from Jennewein Biotechnologie GmbH, Germany) supplementation experiments we used a chronic-binge ethanol diet (NIAAA model). Fut2^−/− mice (10-11 weeks, male and female) were fed with Lieber-DeCarli diet with caloric intake from ethanol 0% on days 1-5 and 36% of total calories from day 6 to day 16. At day 16 in the early morning, mice were gavaged with a single dose of ethanol (5 g/kg body weight) and harvested 9 hours later. In the 2′-FL treated groups 2′-FL was added in the ethanol diet at a final concentration of 2 mg/mL and given continuously during the study period. Formalin-fixed and paraffin-embedded mouse livers were stained with hematoxylin-eosin (Leica Biosystems Inc.) using standard staining protocols. Frozen liver sections were stained with Oil Red O (Sigma-Aldrich, 00625). Biochemical assays. Levels of plasma alanine aminotransferase (ALT) were measured using infinity ALT kit (Thermo Scientific, TR71121). Triglyceride levels were measured using the Triglyceride Liquid Reagents Kit (Pointe Scientific, 51604). Reverse transcription and real-time quantitative PCR. For reverse transcription qPCR, RNA was extracted from mouse liver, and cDNAs were generated as described. DNA from mouse feces was extracted using QIAamp Fast DNA Stool kit (Qiagen, 51604). Quantitative PCR was performed with iTaq universal SYBR Green Supermix (Bio-Rad, 1725124) using a StepOnePlus thermocycler real-time PCR system. Primer sequences for mouse genes were obtained from the NIH qPrimerDepot. The values of mouse genes were normalized to 18S, while bacterial genes were normalized to 16S.

The next series has as its system E. faecalis. The series is described as follows: Fecal E. faecalis and cytolysin by qPCR in chronic-binge ethanol diet-fed mice. The class given is in vivo, mouse. Particulars: Fut2^−/− mice. On the procedure: In the 2′-fucosyllactose (2′-FL; a gift from Jennewein Biotechnologie GmbH, Germany) supplementation experiments we used a chronic-binge ethanol diet (NIAAA model). Fut2^−/− mice (10-11 weeks, male and female) were fed with Lieber-DeCarli diet with caloric intake from ethanol 0% on days 1-5 and 36% of total calories from day 6 to day 16. At day 16 in the early morning, mice were gavaged with a single dose of ethanol (5 g/kg body weight) and harvested 9 hours later. In the 2′-FL treated groups 2′-FL was added in the ethanol diet at a final concentration of 2 mg/mL and given continuously during the study period.
Reverse transcription and real-time quantitative PCR. For reverse transcription qPCR, RNA was extracted from mouse liver, and cDNAs were generated as described. DNA from mouse feces was extracted using QIAamp Fast DNA Stool kit (Qiagen, 51604). Quantitative PCR was performed with iTaq universal SYBR Green Supermix (Bio-Rad, 1725124) using a StepOnePlus thermocycler real-time PCR system. Primer sequences for mouse genes were obtained from the NIH qPrimerDepot. The values of mouse genes were normalized to 18S, while bacterial genes were normalized to 16S.
(In general: Quantitative PCR measures a nucleic acid by following its amplification.)

The subject of series [1] is cytolysin positive strain of E. faecalis. The series can be described thus: Enterococcus faecalis cultures, growth by optical density at 600 nm. The conditions noted are these: BHI media with 0, 0.25, 0.5, 1, 2 or 20 mg/mL of 2′-FL, 6 h, sampling every 30 min (FIG. 5G). Type of series: cell-based. As to the method:
Enterococcus faecalis cultures. A cytolysin positive strain of E. faecalis, which was isolated from feces of an ethanol-fed Atp4a^s1/s1 mouse, was cultured in BHI media with 0, 0.25, 0.5, 1, 2 or 20 mg/mL of 2′-FL in triplicate for each concentration. Sampling was taken at 30 min intervals during the course of 6 h. Cell growth was determined by measuring the optical density at 600 nm for each time-point.

The values that follow come from US11896603B2, “Oligosaccharide as therapeutic agent for alcohol associated liver disease” (The Regents of the University of California, priority 2020, dated 2024).

In the case of `CC1O[C@@H](OC2[C@H](O[C@@H]3C(CO)OC(O)C(O)[C@H]3O)OC(CO)[C@H](O)[C@@H]2O)[C@@H](O)C(O)[C@@H]1O` (stereo partly shown) [2′-FL, 2′-fucosyllactose], in the series with Fut2^−/− mice (2′-FL 2 mg/mL in diet for 2 weeks (FIG. 4G-4I)), the “Metabolism of ethanol (plasma ethanol, hepatic Adh1 mRNA, hepatic Cyp2e1 mRNA)” value is on record as “without affecting”. Further, in the series with Fut2^−/− mice (2′-FL 2 mg/mL in diet for 2 weeks, compared with ethanol diet alone (FIG. 4A)), the “Plasma alanine aminotransferase (ALT)” value was “lower”. Further, the Hepatic triglyceride result in the series on Fut2^−/− mice (2′-FL 2 mg/mL in diet for 2 weeks, compared with ethanol diet alone (FIG. 4B)) is “lower”. Also, in the series on Fut2^−/− mice (2′-FL 2 mg/mL in diet for 2 weeks, compared with ethanol diet alone (FIG. 4C)), the “Liver histopathology (H&E-stained liver tissue)” value is “improvement”. In the series with Fut2^−/− mice (2′-FL 2 mg/mL in diet for 2 weeks, compared with ethanol diet alone (FIG. 4D)), the “Hepatic Cxcl1 mRNA level” value is reported as “decreased”. Besides, the “Hepatic Cxcl2 mRNA level” value in the series on Fut2^−/− mice (2′-FL 2 mg/mL in diet for 2 weeks, compared with ethanol diet alone (FIG. 4E)) is listed as “decreased”. Also, the “Oil Red O staining of liver tissue” value with Fut2^−/− mice (2′-FL 2 mg/mL in diet for 2 weeks, compared with ethanol diet alone (FIG. 4F)) is reported as “improvement”. The “Intestinal amount of E. faecalis (fecal E. faecalis, qPCR)” value with E. faecalis (chronic-binge ethanol diet with or without 2′-FL for 2 weeks (FIG. 5E)) is given as “decreased”. Further, the “Fecal cytolysin (qPCR)” value in the series on E. faecalis (chronic-binge ethanol diet with or without 2′-FL for 2 weeks (FIG. 5F)) is reported as “decreased”. In addition, the “E. faecalis growth (OD600)” value in series [1] is listed as “not affected”.
